Reference: ChEMBL document CHEMBL3046822, “Synthesis, antiplatelet aggregation activity, and molecular modeling study of novel substituted-piperazine analogues” (2011)
The source made the active and inactive calls. No cut-off for these calls is given here.

How the values were obtained:
[1] = tested on: Platelet; experiment: Antiaggregating activity in Homo sapiens (human) platelet rich plasma assessed as inhibition of arachidonic acid-induced platelet aggregation at 0.5 uM incubated for 4 min prior to arachidonic acid-induction measured for 5.5 min by turbidometric analysis; type: functional
[2] = tested on: Platelet; experiment: Antiaggregating activity in Homo sapiens (human) platelet rich plasma assessed as inhibition of arachidonic acid-induced platelet aggregation at 1 uM incubated for 4 min prior to arachidonic acid-induction measured for 5.5 min by turbidometric analysis; type: functional, cell-free
[3] = tested on: Platelet; experiment: Antiaggregating activity in Homo sapiens (human) platelet rich plasma assessed as inhibition of adrenaline-induced platelet aggregation at 0.4 uM incubated for 4 min prior to adrenaline-induction measured for 5.5 min by turbidometric analysis; type: functional, cell-free
[4] = tested on: Platelet; experiment: Antiaggregating activity in Homo sapiens (human) platelet rich plasma assessed as inhibition of adrenaline-induced platelet aggregation at 0.5 uM incubated for 4 min prior to adrenaline-induction measured for 5.5 min by turbidometric analysis; type: functional, cell-free
[5] = tested on: Platelet; experiment: Antiaggregating activity in Homo sapiens (human) platelet rich plasma assessed as inhibition of adrenaline-induced platelet aggregation at 1 uM incubated for 4 min prior to adrenaline-induction measured for 5.5 min by turbidometric analysis; type: functional, cell-free
[6] = Antiaggregating activity in Homo sapiens (human) platelet rich plasma assessed as ristocetin-induced platelet aggregation at 0.4 uM incubated for 4 min prior to ristocetin-induction measured for 5.5 min by turbidometric analysis (reference value: 65 to 99%); type: functional
[7] = Antiaggregating activity in Homo sapiens (human) platelet rich plasma assessed as ristocetin-induced platelet aggregation at 0.5 uM incubated for 4 min prior to ristocetin-induction measured for 5.5 min by turbidometric analysis (reference value: 65 to 99%); type: functional
[8] = Antiaggregating activity in human platelet rich plasma assessed as disaggregation of ristocetin-induced platelet aggregation at 1 uM incubated for 4 min prior to ristocetin-induction measured for 5.5 min by turbidometric analysis relative to control; type: functional
[9] = tested on: Platelet; experiment: Antiaggregating activity in Homo sapiens (human) platelet rich plasma assessed as inhibition of ADP-induced platelet aggregation at 0.4 uM incubated for 4 min prior to ADP-induction measured for 5.5 min by turbidometric analysis; type: functional, cell-free
[10] = tested on: Platelet; experiment: Antiaggregating activity in Homo sapiens (human) platelet rich plasma assessed as inhibition of ADP-induced platelet aggregation at 0.5 uM incubated for 4 min prior to ADP-induction measured for 5.5 min by turbidometric analysis; type: functional, cell-free
[11] = tested on: Platelet; experiment: Antiaggregating activity in Homo sapiens (human) platelet rich plasma assessed as inhibition of ADP-induced platelet aggregation at 1 uM incubated for 4 min prior to ADP-induction measured for 5.5 min by turbidometric analysis; type: functional, cell-free
[12] = tested on: Platelet; experiment: Antiaggregating activity in Homo sapiens (human) platelet rich plasma assessed as inhibition of collagen-induced platelet aggregation at 0.4 uM incubated for 4 min prior to collagen-induction measured for 5.5 min by turbidometric analysis; type: functional, cell-free
[13] = tested on: Platelet; experiment: Antiaggregating activity in Homo sapiens (human) platelet rich plasma assessed as inhibition of collagen-induced platelet aggregation at 0.5 uM incubated for 4 min prior to collagen-induction measured for 5.5 min by turbidometric analysis; type: functional, cell-free
[14] = tested on: Platelet; experiment: Antiaggregating activity in Homo sapiens (human) platelet rich plasma assessed as inhibition of collagen-induced platelet aggregation at 1 uM incubated for 4 min prior to collagen-induction measured for 5.5 min by turbidometric analysis; type: functional, cell-free
[15] = tested on: Platelet; experiment: Antiaggregating activity in Homo sapiens (human) platelet rich plasma assessed as inhibition of arachidonic acid-induced platelet aggregation at 0.4 uM incubated for 4 min prior to arachidonic acid-induction measured for 5.5 min by turbidometric analysis; type: functional, cell-free

For Cl.O=C(c1cccnc1)N1CCN(c2ccccc2Cl)CC1, the inhibition [1] was “Active”, the inhibition [2] was “Active” and the inhibition [3] was “Active”. For the same compound, the inhibition [4] was “Active”, the inhibition [5] was “Active” and the Activity [6] was 77%. The Activity [7] was 71%, the Activity [8] was 23% and the inhibition [9] was “Active”. For the same compound, the inhibition [10] was “Active”, the inhibition [11] was “Active” and the inhibition [12] was “Active”. The inhibition [13] was “Active”, the inhibition [14] was “Active” and the inhibition [15] was “Active”.
